Experimental findings from ChEMBL document CHEMBL4387706, “Discovery of Novel Spiroindoline Derivatives as Selective Tankyrase Inhibitors” (J Med Chem, 2019) are described below.

Structures are written as SMILES.

Series [1] can be described thus: Half life in ICR mouse at 50 mg/kg, ip. The class given is ADME, organism-based. The settings on record: in vivo.
Series [2] addresses D(1A) dopamine receptor (Homo sapiens) (UniProt P21728). Kind of series: Displacement of [3H]SCH-23390 from full-length recombinant human D1 receptor expressed in CHO cells at 10 uM measured after 120 mins by scintillation counting method relative to control. The class given is cell-based.
For series [3], the target named is Kappa-type opioid receptor (Homo sapiens) (UniProt P41145). Kind of series: Displacement of [3H]diprenorphine from full-length recombinant human KOR expressed in HEK293 cells at 10 uM measured after 60 mins by scintillation counting method relative to control. It counts as cell-based.
Sequence of Kappa-type opioid receptor (Homo sapiens) (P41145 whole entry): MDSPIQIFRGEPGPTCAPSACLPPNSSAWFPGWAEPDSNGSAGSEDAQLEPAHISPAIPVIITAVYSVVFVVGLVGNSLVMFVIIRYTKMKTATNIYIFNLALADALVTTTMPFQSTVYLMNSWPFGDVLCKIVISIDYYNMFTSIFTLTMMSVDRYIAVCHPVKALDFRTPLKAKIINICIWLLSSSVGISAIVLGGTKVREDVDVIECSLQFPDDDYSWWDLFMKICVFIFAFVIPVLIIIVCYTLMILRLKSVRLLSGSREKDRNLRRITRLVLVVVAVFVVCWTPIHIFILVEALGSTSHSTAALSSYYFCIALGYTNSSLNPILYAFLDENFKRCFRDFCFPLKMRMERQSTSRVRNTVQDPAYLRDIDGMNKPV

Sequence of D(1A) dopamine receptor (Homo sapiens) (P21728 whole entry): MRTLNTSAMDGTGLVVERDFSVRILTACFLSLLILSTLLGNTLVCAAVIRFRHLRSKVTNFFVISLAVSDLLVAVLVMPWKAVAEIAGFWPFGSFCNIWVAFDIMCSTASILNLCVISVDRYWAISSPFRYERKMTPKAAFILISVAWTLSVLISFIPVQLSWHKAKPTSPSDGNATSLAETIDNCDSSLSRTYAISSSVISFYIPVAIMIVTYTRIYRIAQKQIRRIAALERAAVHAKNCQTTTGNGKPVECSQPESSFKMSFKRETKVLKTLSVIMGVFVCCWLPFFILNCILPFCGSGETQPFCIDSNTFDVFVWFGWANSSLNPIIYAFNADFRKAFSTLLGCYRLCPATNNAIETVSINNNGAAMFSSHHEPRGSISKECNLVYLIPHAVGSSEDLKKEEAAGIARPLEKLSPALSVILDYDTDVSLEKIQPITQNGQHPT

With `O=c1[nH]c(N2CCC3(CC2)CN(CCO)c2cc(F)cc(F)c23)nc2c1CCCC2`, in series [1], the half-life is 2.8 h. Further, the inhibition in series [2] and in series [3] was greater than 20% throughout.
